In patent publication US8796245B2 (TetraPhase Pharmaceuticals, Inc., priority 2008, dated 2014):
In brackets after ≈: the same amount, converted by molar mass.

Experiments:
[1] = Metabolic stability, pooled human microsome assay; type: in vitro ADME; details: % compound remaining after 60 min, 37° C. incubation with human liver microsomes
Protocol: A stock solution of the test compounds were prepared by dissolving the compound in DMSO to a final concentration of 1.0 mg/mL. The analytes and internal standard were diluted and infused into the LC/MS system to determine optimal ionization, polarity and MS/MS fragmentation for selection of specific MRM (multiple reaction monitoring) transitions. Generic chromatographic conditions were developed with a less than 5 minute cycle time. Pooled human microsome assays were conducted at 0.2 mg/mL protein with an NADPH generating cofactor system (1.3 mM NADP+, 3.3 mM glucose-6-phosphate, 0.4 U/mL glucose-6-phosphate dehydrogenase, and 3.3 mM magnesium chloride). Test compounds were diluted from DMSO stocks to 1 μM reaction concentrations. Time points were removed at 0 and 60 minutes. After a protein crash with acetonitrile, samples are analyzed by LC/MS/MS. Peak areas are compared to the time 0 sample, and the percent analyte remaining is calculated. A reaction containing no cofactor was used to control for analyte loss due to non-specific binding, thermal degradation and solubility.

[2] = system: clinical isolates of E. coli; assay: EC MIC90; type: cell-based; details: Escherichia coli; inhibit 90% of E. coli clinical isolates (n = 20); read-out: EC MIC 90
Protocol: (§1) Twenty randomly selected clinical isolates of S. aureus were used to determine the minimal inhibitory concentration (MIC) of test compounds for 90% of the isolates (MIC90). MICs were performed by microtiter broth dilution in a 96-well format according to Clinical Laboratory Standards Institute (CLSI) guidelines, as described above. Twenty randomly selected clinical isolates of E. coli were used to determine the MIC90 as described above.

[3] = Protein binding in human plasma (RED devices); type: in vitro ADME; details: % Protein binding in human plasma with compound at 10 uM
Protocol: Test compounds were prepared as 1.0 mg/mL stock solutions in DMSO. The analytes and internal standard were diluted and infused into the LC/MS system to determine optimal ionization, polarity and MS/MS fragmentation for selection of specific MRM (multiple reaction monitoring) transitions. Generic chromatographic conditions were developed with a less than 5 minute cycle time.
[…] The time point was removed at the end of the incubation period. After a protein crash with acetonitrile, the samples were analyzed by LC/MS/MS. Peak areas for the buffer (receiver) and sample (donor) chambers were compared and the protein bound fraction is calculated. Analysis was conducted in duplicate.

[4] = system: tetracycline-resistant S. aureus; assay: TetR MIC90; type: cell-based; details: Staphylococcus aureus; inhibit 90% of tetracycline-resistant S. aureus (n = 10); read-out: TetR MIC 90
Protocol: as §1, with “above.” for “above. Twenty randomly selected clinical isolates of E. coli were used to determine the MIC90 as described above.”

[5] = system: clinical isolates of S. aureus; assay: SA MIC90; type: cell-based; details: Staphylococcus aureus; inhibit 90% of S. aureus clinical isolates (n = 20); read-out: SA MIC 90
Protocol: Twenty randomly selected clinical isolates of S. aureus were used to determine the minimal inhibitory concentration (MIC) of test compounds for 90% of the isolates (MIC90). MICs were performed by microtiter broth dilution in a 96-well format according to Clinical Laboratory Standards Institute (CLSI) guidelines, as described above. Viable counts were determined by 10-fold serial dilution. Dilutions were prepared in sterile 0.9% NaCl. Ten microliters of the inoculum and of each of 5 dilutions were plated onto blood or Mueller Hinton agar plates, incubated overnight at 37° C. with 5% CO2, and counted.

[6] = system: S. aureus isolate, ATCC 13709; assay: ED50 IV study, mouse systemic infection model; type: in vivo; details: Staphylococcus aureus, ATCC13709, mg/kg required to protect 50% of mice in septicemia model with S. aureus Smith strain, 60 minutes post infection, 48 hour survival
Protocol: (§2) Compounds of the present invention were evaluated for efficacy in a mouse systemic infection model against a susceptible S. aureus isolate, ATCC 13709. Mice were infected via intraperitoneal injection with a bacterial load that would result in 0% survival within 48 hours after infection. Mice received the test compounds 60 minutes post infection via intravenous injection. […] Survival was assessed over a 48 hour period. Percent survival was calculated and PD50 values determined using Probit analysis.

[7] = system: S. aureus SA161, a tetracycline-resistant strain; assay: Tet-R sepsis study, mouse systemic infection model; type: in vivo; details: mg/kg required to protect 50% of mice in septicemia model with tetracycline-resistant S. aureus strain
Protocol: as §2
The protocol for tetracycline-resistance sepsis study was similar to the protocol for EV50 IV study described above except the infection model used S. aureus SA161, a tetracycline-resistant strain.

[8] = system: E. coli ATCC 25922; assay: GN sepsis study, mouse systemic infection model; type: in vivo; details: mg/kg required to protect 50% of mice in septicemia model with E. coli strain
Protocol: as §2, with “analysis. The protocol for GN sepsis study was similar to the protocol for EV50 IV study described above except the infection model used E. coli ATCC 25922.” for “analysis.”

[9] = system: S. aureus ATCC 13709; assay: Thigh burden, neutropenic mouse thigh infection; type: in vivo; details: maximum log10 reduction in bacteria compared to untreated control, achieved at tested doses; neutropenic mice, IV
Protocol: Female CD-1 mice were pre-treated with cyclophosphamide to render the mice neutropenic. Mice were infected with S. aureus ATCC 13709 via injection into the right thigh muscle of 0.1 ml per mouse. One and a half hours post infection mice were treated IV with test compounds in doses ranging from 0.3 to 30 mg/kg or 0.3 to 20 mg/kg. Four mice were treated with each drug concentration. Twenty-four hours post treatment, mice were euthanized by CO2 inhalation. The right thighs of the mice were aseptically removed, weighed, homogenized, serially diluted, and plated on TSA medium. The plates were incubated overnight at 37° C. in 5% CO2. Colony forming units per gram of thigh was calculated by enumerating the plated colonies then adjusting for serial dilutions and the weight of the thigh.

SMILES	Meta Stab % [1]	MIC90 [2]	Prot Bind % [3]	MIC90 [4]	MIC90 [5]	ED50 [6]	TetR sepsis [7]	GN sepsis [8]	Thigh Burden [9]
CC(C)NCC(=O)Nc1cc(F)c2c(c1O)C(=O)C1=C(O)[C@]3(O)C(=O)C(C(N)=O)=C(O)[C@@H](N(C)C)[C@@H]3C[C@@H]1C2 [drawing 219]	96%	1 µg/mL (≈ 1.83 µM)	96.9%	2 µg/mL (≈ 3.66 µM)	0.06 µg/mL (≈ 0.11 µM)	0.3 mg/kg	–	–	–
CN(C)[C@@H]1C(O)=C(C(N)=O)C(=O)[C@@]2(O)C(O)=C3C(=O)c4c(O)c(NC(=O)CNCC5CC5)cc(F)c4C[C@H]3C[C@@H]12 [drawing 218]	65%	2 µg/mL (≈ 3.58 µM)	87.9%	8 µg/mL (≈ 14.3 µM)	0.03 µg/mL (≈ 0.0537 µM)	0.55 mg/kg	–	–	–
CN(C)CC(=O)Nc1cc(F)c2c(c1O)C(=O)C1=C(O)[C@]3(O)C(=O)C(C(N)=O)=C(O)[C@@H](N(C)C)[C@@H]3C[C@@H]1C2 [drawing 220]	109%	4 µg/mL (≈ 7.51 µM)	93.6%	4 µg/mL (≈ 7.51 µM)	0.06 µg/mL (≈ 0.113 µM)	0.073 mg/kg	0.62 mg/kg	4.3 mg/kg	4.12 log10 decrease
CC(C)CNCC(=O)Nc1cc(F)c2c(c1O)C(=O)C1=C(O)[C@]3(O)C(=O)C(C(N)=O)=C(O)[C@@H](N(C)C)[C@@H]3C[C@@H]1C2 [drawing 215]	72%	1 µg/mL (≈ 1.78 µM)	95.6%	4 µg/mL (≈ 7.14 µM)	0.03 µg/mL (≈ 0.0535 µM)	0.55 mg/kg	3.5 mg/kg	14.3 mg/kg	5.01 log10 decrease
CN(C)[C@@H]1C(O)=C(C(N)=O)C(=O)[C@@]2(O)C(O)=C3C(=O)c4c(O)c(NC(=O)CNC(C)(C)C)cc(F)c4C[C@H]3C[C@@H]12 [drawing 214]	104%	0.5 µg/mL (≈ 0.892 µM)	90%	2 µg/mL (≈ 3.57 µM)	0.03 µg/mL (≈ 0.0535 µM)	0.3 mg/kg	0.4 mg/kg	6.2 mg/kg	4.41 log10 decrease
CN(C)[C@@H]1C(O)=C(C(N)=O)C(=O)[C@@]2(O)C(O)=C3C(=O)c4c(O)c(NC(=O)CN5CCC5)cc(F)c4C[C@H]3C[C@@H]12 [drawing 216]	85%	0.5 µg/mL (≈ 0.918 µM)	87.1%	4 µg/mL (≈ 7.35 µM)	0.03 µg/mL (≈ 0.0551 µM)	0.07 mg/kg	–	–	–
CN(C)c1cc(NC(=O)CNC(C)(C)C)c(O)c2c1C[C@H]1C[C@H]3[C@H](N(C)C)C(O)=C(C(N)=O)C(=O)[C@@]3(O)C(O)=C1C2=O	55%	0.5 µg/mL (≈ 0.854 µM)	69.1%	1 µg/mL (≈ 1.71 µM)	0.06 µg/mL (≈ 0.102 µM)	0.97 mg/kg	0.55 mg/kg	2.1 mg/kg	4.89 log10 decrease
CN(C)[C@@H]1C(O)=C(C(N)=O)C(=O)[C@@]2(O)C(O)=C3C(=O)c4c(O)c(NC(=O)CN5CCCC5)cc(F)c4C[C@H]3C[C@@H]12 [drawing 217]	86%	0.5 µg/mL (≈ 0.895 µM)	79.4%	2 µg/mL (≈ 3.58 µM)	0.03 µg/mL (≈ 0.0537 µM)	0.3 mg/kg	1 mg/kg	4.36 mg/kg	5.24 log10 decrease
